Measurements from patent publication US6815439B2, “Substituted aza-oxindole derivatives” (SmithKline Beecham Corporation, priority 1999, dated 2004).

What was measured:
Assay type in all cases: biochemical
VEGFR-2 = biological target: T1, VEGFR-2 (Homo sapiens, UniProt P35968); experiment: VEGFR-2 kinase assay; conditions: kinase inhibition, Table 3; read-out: VEGFR2 (IC50)
T1 construct: The kinase domain of the enzyme was purified to homogeneity from a baculovirus expression system; made in house
T1 sequence (P35968 834-1162 limits assumed, species assumed): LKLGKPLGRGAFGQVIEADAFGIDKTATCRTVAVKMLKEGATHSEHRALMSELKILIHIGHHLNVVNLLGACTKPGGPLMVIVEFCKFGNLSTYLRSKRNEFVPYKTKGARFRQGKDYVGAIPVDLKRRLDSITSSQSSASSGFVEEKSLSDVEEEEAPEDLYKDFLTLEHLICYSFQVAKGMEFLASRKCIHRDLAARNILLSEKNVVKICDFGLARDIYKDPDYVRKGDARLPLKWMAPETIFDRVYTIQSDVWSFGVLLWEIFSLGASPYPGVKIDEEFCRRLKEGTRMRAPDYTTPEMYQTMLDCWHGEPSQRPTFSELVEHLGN
Method: The peptide substrate used in the VEGFR-2 assay was biotin-aminohexyl-[…]-NH2. The kinase domain of the enzyme was purified to homogeneity from a baculovirus expression system. The enzyme was preactivated on ice for 15 min in the presence of 100 μM ATP and 20 mM MgCl2, and stored at −80° C. until needed for assay. The activated enzyme was diluted to 0.4 nM into a 60 μl reaction containing 100 mM HEPES, pH 7.5, 5 μM ATP, 10 mM MgCl2, 5 μM peptide, 0.1 mM DTT, 0.05 mg/ml BSA, and an inhibitor at varying concentrations. The controls were reactions in the presence (negative controls) or absence (positive controls) of 50 mM EDTA. Reactions were incubated for 30 min at room temperature, and then quenched by the addition of EDTA to 60 mM in 210 μl. The quenched samples (190 μl) were transferred to a neutravidin-coated plate (Pierce) and incubated at room temperature for 40 min to allow biotinylated peptide to bind to the neutravidin. The unbound components of the reaction were removed by washing with a plate washer, then 200 μl HRP-PY20 anti-phosphotyrosine antibody conjugate was added to each well. After incubation for 40 min, the plate was washed to remove any unbound anitbody. A HRP substrate, K-blue (Neogen) was added and the reaction was quenched with Red Stop (Neogen) after 20 min. The absorbance of the wells was read at A650 in a plate reader. IC50 values were obtained by fitting raw data to A650=VMAX*(1−[I]/IC50+[I])))+b, where b is background.

CDK2 = CDK2 (Homo sapiens, UniProt P24941); experiment: CDK2 substrate phosphorylation assay; conditions: kinase inhibition, Table 3
Method: Cyclin dependent protein kinase assays utilized the peptides Biotin-aminohexyl-[…] and Biotin-aminohexyl-[…]-NH2 as phosphoryl group acceptors. CDK2 was expressed utilizing a baculovirus expression system and was partially purified to comprise 20-80% of total protein, with no detectable competing reactions present. Typically, assays were performed by incubating enzyme (0.2-10 nM), with and without inhibitor, one of the two peptide substrates ([…]), [γ-^32P]ATP ([…]), and 10-20 mM Mg^2+ for periods of time generally within the range 10-120 min. Reactions were terminated with 0.2-2 volumes of either 20% acetic acid or 50-100 mM EDTA buffered to pH 7 (substrate consumption <20%). The buffer employed in enzyme assays was either 30 mM HEPES 7.4 containing 0.15 M NaCl and 5% DMSO, the buffer 50 mM MOPS 7.0 containing 0.15 M NaCl and 5% DMSO, or the buffer 100 mM HEPES pH 7.5 containing 0.1 mg/mL BSA and 5% DMSO. Inhibitors were diluted in 100% DMSO prior to addition into the assay. Detection of peptide phosphorylation was accomplished by scintillation counting following either collection of peptide onto phosphocellulose filters (for reactions stopped with acetic acid), collection of peptide in wells of 96 well plates coated with Streptavidin (Pierce) (reactions were stopped with EDTA), or addition of Avidin coated Scintillant impregnated beads (Scintillation Proximity Assays from Amersham; reactions were stopped with EDTA).

c-fms = biological target: T2, c-fms (Homo sapiens, UniProt P07333); experiment: c-fms protein kinase assay; conditions: kinase inhibition, Table 3
T2 construct: The c-fms intracellular domain was expressed from a baculovirus expression system; GST (N); made in house
T2 sequence (P07333 539-972 limits assumed): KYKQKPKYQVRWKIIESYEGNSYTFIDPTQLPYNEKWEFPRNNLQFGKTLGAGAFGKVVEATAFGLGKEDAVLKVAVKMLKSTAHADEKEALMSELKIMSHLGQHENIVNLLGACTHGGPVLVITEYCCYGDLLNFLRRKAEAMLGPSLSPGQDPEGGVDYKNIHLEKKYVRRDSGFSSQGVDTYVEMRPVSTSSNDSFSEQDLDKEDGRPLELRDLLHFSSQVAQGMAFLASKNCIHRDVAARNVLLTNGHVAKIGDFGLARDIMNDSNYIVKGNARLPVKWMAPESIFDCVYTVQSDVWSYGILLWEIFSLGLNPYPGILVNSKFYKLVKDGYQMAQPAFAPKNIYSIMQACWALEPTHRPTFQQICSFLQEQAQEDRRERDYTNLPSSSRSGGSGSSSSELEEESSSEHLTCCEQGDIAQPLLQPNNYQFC
Method: c-fms protein kinase assays utilized the peptide substrate, biotin-[…]-NH2 as the phosphoryl group acceptor. The c-fms intracellular domain was expressed from a baculovirus expression system, as an amino-terminal GST fusion protein, and purified to homogeneity using Glutathione agarose from Sigma Chemical Co. Maximum activation of the enzyme was achieved by preactivation at room temperature for 120 min in the presence of 100 μM ATP and 15 mM MgCl2, This enzyme stock was diluted to 150 nM prior to using in the assay. Typically assays were performed in white, opaque, 96-well plates in a 45 ul assay volume including 15 ul 6% DMSO, with or without compounds, 15 ul of the preactivated, diluted enzyme, and 15 ul of a substrate mixture. Reactions contained 50 mM HEPES, pH 7.5, 1.7 μM ATP, 15 mM MgCl2, 3 μM peptide, 2.5 mM DTT, 50 mM NaCl and 0.15 uCi/assay [□□^32P]ATP. The controls were reactions in the presence (negative controls) or absence (positive controls) of 50 mM EDTA. Reactions were allowed to proceed for 90 min at room temperature. The reaction products were quantified using Scintillation Proximity technolgy. The reactions were quenched by the addition of 200 ul of a solution containing 0.3 mg streptavidin SPA beads from Amersham, 50 mM EDTA, 0.1% TX-100, 50 uM ATP, in PBS, pH7.2 (phosphate buffered solution). Plates were sealed and counted in a Packard Topcount scintillation counter. IC50 values were obtained by fitting raw data to the equation y=Vmax*(1−(x/(k+x))).

Row | SMILES | IC50 (VEGFR-2) | IC50 (CDK2) | IC50 (c-fms)
1 | O=C1Nc2cccnc2C1=CNc1ccc2cn[nH]c2c1 [Example 3, 3-[(1H-Indazol-6-ylamino)methylidene]-1H-pyrrolo[3,2-b]pyridin-2-one] | 1 to 10 µM | – | –
2 | O=C1Nc2cccnc2C1=CNc1ccc2ncccc2c1 [Example 4, 3-[(6-Quinolinylamino)methylidene]-1,3-dihydro-2H-pyrrolo[3,2-b]pyridin-2-one] | 1 to 10 µM | – | –
3 | O=C1Nc2ncccc2C1=CNc1ccc2cn[nH]c2c1 [Example 6, 3-[(1H-Indazol-6-ylamino)methylidene]-1H-pyrrolo[2,3-b]pyridin-2-one] | 0.1 to 1 µM | – | 1 to 10 µM
4 | O=C1Nc2ncccc2C1=CNc1ccc2ncccc2c1 [Example 7, 3-[(6-Quinolinylamino)methylidene]-1,3-dihydro-2H-pyrrolo[2,3-b]pyridin-2-one] | 1 to 10 µM | – | –
5 | NS(=O)(=O)c1ccc(NC=C2C(=O)Nc3ncc(-c4ccccc4)cc32)cc1 [Example 8, 4-{[(2-Oxo-5-phenyl-1,2-dihydro-3H-pyrrolo[2,3-b]pyridin-3-ylidene)methyl]amino}benzenesulfonamide] | – | 1 to 10 µM | –
6 | O=C1Nc2ncc(-c3ccccc3)cc2C1=CNc1ccc2cn[nH]c2c1 [Example 9, 3-[(1H-Indazol-6-ylamino)methylidene]-5-phenyl-1H-pyrrolo[2,3-b]pyridin-2-one] | – | – | 1 to 10 µM
7 | O=C1Nc2ncc(-c3ccccc3)cc2C1=CNc1ccc2ncccc2c1 [Example 10, 5-Phenyl-3-[(6-quinolinylamino)methylidene]-1,3-dihydro-2H-pyrrolo[2,3-b]pyridin-2-one] | – | – | 1 to 10 µM
8 | O=C1Nc2ncc(-c3ccco3)cc2C1=CNc1ccc2cn[nH]c2c1 [Example 12, 5-(2-Furyl)-3-[(1H-indazol-6-ylamino)methylidene]-1H-pyrrolo[2,3-b]pyridin-2-one] | 0.1 to 1 µM | 1 to 10 µM | 1 to 10 µM
9 | O=C1Nc2ncc(-c3ccco3)cc2C1=CNc1ccc2ncccc2c1 [Example 13, 5-(2-Furyl)-3-[(6-quinolinylamino)methylidene]-1,3-dihydro-2H-pyrrolo[2,3-b]pyridin-2-one] | 1 to 10 µM | – | 1 to 10 µM
10 | O=C1Nc2ncc(-c3ccsc3)cc2C1=CNc1ccc2cn[nH]c2c1 [Example 15, 3-[(1H-Indazol-6-ylamino)methylidene]-5-(3-thienyl)-1,3-dihydro-2H-pyrrolo[2,3-b]pyridin-2-one] | 1 to 10 µM | 0.1 to 1 µM | 1 to 10 µM
11 | O=C1Nc2ncc(-c3ccsc3)cc2C1=CNc1ccc2ncccc2c1 [Example 16, 3-[(6-Quinolinylamino)methylidene]-5-(3-thienyl)-1,3-dihydro-2H-pyrrolo[2,3-b]pyridin-2-one] | 1 to 10 µM | – | 0.1 to 1 µM
12 | O=C1Nc2ncc(Br)cc2C1=CNc1ccc2cn[nH]c2c1 [Example 18, 5-Bromo-3-[(1H-indazol-6-ylamino)methylidene]-1,3-dihydro-2H-pyrrolo[2,3-b]pyridin-2-one] | 0.1 to 1 µM | 0.01 to 0.1 µM | 1 to 10 µM
13 | O=C1Nc2ncc(Br)cc2C1=CNc1ccc2ncccc2c1 [Example 19, 5-Bromo-3-[(6-quinolinylamino)methylidene]-1,3-dihydro-2H-pyrrolo[2,3-b]pyridin-2-one] | 0.1 to 1 µM | 0.01 to 0.1 µM | 1 to 10 µM
14 | O=C1Nc2nc(Cl)ccc2C1=CNc1ccc2cn[nH]c2c1 [Example 21, 6-Chloro-3-[(1H-indazol-6-ylamino)methylidene]-1,3-dihydro-2H-pyrrolo[2,3-b]pyridin-2-one] | 0.1 to 1 µM | 0.1 to 1 µM | 1 to 10 µM
15 | O=C1Nc2nc(Cl)ccc2C1=CNc1ccc2ncccc2c1 [Example 22, 6-Chloro-3-[(6-quinolinylamino)methylidene]-1,3-dihydro-2H-pyrrolo[2,3-b]pyridin-2-one] | 1 to 10 µM | – | 1 to 10 µM
16 | CCOC(=O)c1cnc2c(c1)C(=CNc1ccc3ncccc3c1)C(=O)N2 [Example 25, Ethyl 2-oxo-3-[(6-quinolinylamino)methylidene]-2,3-dihydro-1H-pyrrolo[2,3-b]pyridine-5-carboxylate] | 0.1 to 1 µM | 0.1 to 1 µM | –

Second part, the compound after the results:

Row | IC50 (VEGFR-2) | IC50 (CDK2) | IC50 (c-fms) | SMILES
17 | 1 to 10 µM | 0.01 to 0.1 µM | – | NS(=O)(=O)c1ccc(NC=C2C(=O)Nc3ccncc32)cc1 [Example 1, 4-{[(2-Oxo-1,2-dihydro-3H-pyrrolo[3,2-c]pyridin-3-ylidene)methyl]amino}benzenesulfonamide]
18 | – | 0.01 to 0.1 µM | – | NS(=O)(=O)c1ccc(NC=C2C(=O)Nc3cnccc32)cc1 [Example 2, 4-{[(2-Oxo-1,2-dihydro-3H-pyrrolo[2,3-c]pyridin-3-ylidene)methyl]amino}benzenesulfonamide]
19 | 1 to 10 µM | 0.1 to 1 µM | – | NS(=O)(=O)c1ccc(NC=C2C(=O)Nc3ncccc32)cc1 [Example 5, 4-{[(2-Oxo-1,2-dihydro-3H-pyrrolo[2,3-b]pyridin-3-ylidene)methyl]amino}benzenesulfonamide]
20 | 1 to 10 µM | 0.01 to 0.1 µM | 0.1 to 1 µM | NS(=O)(=O)c1ccc(NC=C2C(=O)Nc3ncc(-c4ccco4)cc32)cc1 [Example 11, 4-({[5-(2-Furyl)-2-oxo-1,2-dihydro-3H-pyrrolo[2,3-b]pyridin-3-ylidene]methyl}amino)benzenesulfonamide]
21 | 0.1 to 1 µM | 0.1 to 1 µM | 0.1 to 1 µM | NS(=O)(=O)c1ccc(NC=C2C(=O)Nc3ncc(-c4ccsc4)cc32)cc1 [Example 14, 4-({[2-Oxo-5-(3-thienyl)-1,2-dihydro-3H-pyrrolo[2,3-b]pyridin-3-ylidene]methyl}amino)benzenesulfonamide]
22 | 0.1 to 1 µM | 0.01 to 0.1 µM | 1 to 10 µM | NS(=O)(=O)c1ccc(NC=C2C(=O)Nc3ncc(Br)cc32)cc1 [Example 17, 4-{[(5-Bromo-2-oxo-1,2-dihydro-3H-pyrrolo[2,3-b]pyridin-3-ylidene)methyl]amino}benzenesulfonamide]
23 | 0.1 to 1 µM | 0.1 to 1 µM | – | NS(=O)(=O)c1ccc(NC=C2C(=O)Nc3nc(Cl)ccc32)cc1 [Example 20, 4-{[(6-Chloro-2-oxo-1,2-dihydro-3H-pyrrolo[2,3-b]pyridin-3-ylidene)methyl]amino}benzenesulfonamide]
